Assay results published in patent US8338616B2, “Thiazoliums and their use for treating protein aging associated diseases” (Beijing Molecule Science And Technology Co., Ltd., priority 2008, dated 2012).
Where two headings read alike, the source gives them in different places. Marks after values point to notes of the source that are not given here.

How the values were obtained:
diabetic rats [1] = details: for CO / Cl / Diastolic pressure / Heart rate / SAC / Systolic pressure / TPR / TPR index / Organ parameters: Heart / Organ parameters: Heart ventricle / Organ parameters: Left kidney / Organ parameters: Left ventricle / Organ parameters: Right kidney: diabetic rats; for CO / Cl / Diastolic pressure / Heart rate / SAC / Systolic pressure / TPR / TPR index: 4 weeks; for Organ parameters: Heart / Organ parameters: Heart ventricle / Organ parameters: Left kidney / Organ parameters: Left ventricle / Organ parameters: Right kidney: dose not given
Protocol: Rats were anesthetized with pentobarbital sodium injection (0.8%, 50 mg/kg), subjected to tracheal cannula, heparin anticoagulation, right common carotid artery cannula, communicated with Biopac physiological recorder via is pressure transducers to record blood pressure; subjected to thoracotomy at middle of sternum, separation of ascending aorta which was covered with pulse Doppler probe, and the pulse Doppler rheometer was linked to the Biopac physiological recorder for real-time recording and calculating hemodynamic parameters by the software of Biopac (Acknowledge, Version 3): systolic blood pressure (SBP), diastolic blood pressure (DBP), heart rate (HR), cardiac output
(CO), cardiac index (CI), total peripheral resistance (TPR), total peripheral resistance index (TPR Index), stroke volume (SV) and system arterial compliance (SAC), etc. After 10 min of postoperative stabilization, these parameters were recorded continuously, and mean values for 30 s were used as the measured values of these parameters.
Formula for calculating some of hemodynamic parameters: TPR=mean arterial pressure (MAP)/CO SAC=SV/(SBP−DBP)

diabetic rats [2] = details: for HR / LVEDP / LVSP / Neg dp/dt / Pos dp/dt: 4 weeks
Protocol: Rats were anesthetized with pentobarbital sodium injection (0.8%, 50 mg/kg), subjected to tracheal cannula, heparin anticoagulation, right common carotid artery cannula to left ventricle, communicated with Biopac physiological recorder via pressure transducers to record left ventricular pressure tracing, and the software of Biopac (Acknowledge, Version 3) was used for real-time reacording: heart rate, left ventricular systolic pressure peak (LVSP), maximum rate of change of left intraventricular pressure (±dp/dtmax), left ventricular end diastolic pressure (LVEDP). After 10 min of postoperative stabilization, the above parameters were recorded continuously, and mean values for 30 s were used as the measured values of these parameters.

[3] = tested on: NaCl treated diabetic rats modeled with heart failure; assay: Chronic heart failure, first batch, ultrasonic cardiogram evaluation; type: in vivo, rat; details: valsartan 10 mg/kg, compound A 18 mg/kg ig
Protocol: The pharmacodynamic evaluation was conducted by using a noninvasive ultrasonic cardiogram method.
Evaluation indexes: (1) morphology indexes: left ventricular posterior wall dimensions (LVPWd), left ventricular diastasis internal diameter (LVDd), end systolic diameter (LVDs); (2) functional indexes: ejection fraction (EF), shortening fraction (FS), ventricular early blood flow filling rate (E), atrial filling rate (A) and ratio of E/A; Doppler tissue image; at cardiac apical four chamber view, the valve ring of anterior mitral valve was used as sampling point, peak early diastolic velocity (Ea peak), peak late diastolic velocity (Aa peak), and Ea/Aa ratio reflected the systolic and diastolic motion of the whole left ventricle.
(§1) SPSS statistic software was used to analyze and treat data, and all data were expressed in mean±standard deviation (Mean±SD).

[4] = tested on: NaCl treated diabetic rats modeled with heart failure; details: 10 weeks; for BNP: blood plasma
Protocol: Second batch: NaCl treated diabetic rats modeled with heart failure for 20 weeks and normal control rats synchronically and conventionally drinking water were divided into 5 groups: normal control rats synchronically and conventionally drinking water group (Normal Control), model control group (Model Control), the compound A group (ig, 9 mg/kg), the compound A group (ig, 36 mg/kg), administered with drug once per day for consecutive 10 weeks. The pharmacodynamic evaluation on left ventricular function was conducted by using a ventricular chatheterization method.
as §1

[5] = tested on: tail collagen of diabetic rats; details: diabetic model 19.7±7.2
Protocol: Tail tendon collagen fibrils were taken out under ice-bath, washed with physiological saline, peeled off non-collagen tissues, lyophilized and stored at −70° C. for standby use.
The lyophilized tail collagen was cut into pieces, 2 mg of tail collagen was precisely weighed, added with 10 μg/ml pepsin (solvent: 0.5 mol/L acetic acid) to reach a final concentration of 5 μg pepsin/mg tail collagen, shanken at 4° C. for 2 h, centrifuged at 40000 g for 60 min, after the volume of supernatant was precisely measured, 500 μl of supernatant and total deposition were separately transferred into 5 ml ampules, added with 6 mol/L HCl, sealed, placed in calorstat oven, and hydrolyzed at 110° C. for 24 h.
Measurement of hydroxyproline concentration in the hydrolysis solution: (1) 100 μl of hydrolysis solution was taken from each of ampules, added with about 50 μl 10 mol/L NaOH to pH 6.0, and citric acid buffer solution (50 g citric acid.H2O, 72.36 g anhydrous sodium acetate, 34 g NaOH, 11.52 ml glacial acetic acid were mixed and added with water to 1200 ml, and added with 300 ml n-propanol) 850 μl. […] (4) 10% P-DMAB (1 g p-dimethylaminobenzaldehyde, added with 3.15 mol/L perchloric acid 2.6 ml to dissolve, then diluted with n-propanol to 10 ml, ready to use) 500 μl was added, mixed quickly at 75° C. water-bath for 10 min. […]

With Cc1csc[n+]1CC(=O)O.[Na+] [A, 3-carboxymethyl-4-methyl-thiazolium bromide sodium] the CO (diabetic rats [1]; 9 mg/kg i.g.) was 84.9 ± 13.6 mL/min, the Cl (diabetic rats [1]; 9 mg/kg i.g.) was 0.194 ± 0.031 ml/min per cm^2 and the Diastolic pressure (diabetic rats [1]; 9 mg/kg i.g.) was 68.8 ± 14.0 mmHg. The Heart rate (diabetic rats [1]; 9 mg/kg i.g.) was 265.2 ± 25.8^ beats/min, the SAC (diabetic rats [1]; 9 mg/kg i.g.) was 9.05 ± 1.44** 10^−3 ml/mmHg and the Systolic pressure (diabetic rats [1]; 9 mg/kg i.g.) was 105.3 ± 12.0 mmHg. The TPR (diabetic rats [1]; 9 mg/kg i.g.) was 78.6 ± 19.7** 10^3 · dyne · sec/cm^5, the TPR index (diabetic rats [1]; 9 mg/kg i.g.) was 181.6 ± 51.3 dyne · sec/cm^3 and the CO (diabetic rats [1]; 18 mg/kg i.g.) was 79.2 ± 10.6 mL/min. The Cl (diabetic rats [1]; 18 mg/kg i.g.) was 0.179 ± 0.026 ml/min per cm^2, the Diastolic pressure (diabetic rats [1]; 18 mg/kg i.g.) was 72.8 ± 17.2 mmHg and the Heart rate (diabetic rats [1]; 18 mg/kg i.g.) was 282.2 ± 31.9^ beats/min. The SAC (diabetic rats [1]; 18 mg/kg i.g.) was 8.02 ± 1.27** 10^−3 ml/mmHg, the Systolic pressure (diabetic rats [1]; 18 mg/kg i.g.) was 108.7 ± 14.7 mmHg and the TPR (diabetic rats [1]; 18 mg/kg i.g.) was 87.4 ± 22.3* 10^3 · dyne · sec/cm^5. The TPR index (diabetic rats [1]; 18 mg/kg i.g.) was 198.2 ± 56.2 dyne · sec/cm^3, the CO (diabetic rats [1]; 36 mg/kg i.g.) was 77.7 ± 10.0 mL/min and the Cl (diabetic rats [1]; 36 mg/kg i.g.) was 0.179 ± 0.024 ml/min per cm^2. The Diastolic pressure (diabetic rats [1]; 36 mg/kg i.g.) was 60.7 ± 16.1 mmHg, the Heart rate (diabetic rats [1]; 36 mg/kg i.g.) was 261.0 ± 32.3^ beats/min and the SAC (diabetic rats [1]; 36 mg/kg i.g.) was 7.92 ± 1.11* 10^−3 ml/mmHg. The Systolic pressure (diabetic rats [1]; 36 mg/kg i.g.) was 99.2 ± 13.2 mmHg, the TPR (diabetic rats [1]; 36 mg/kg i.g.) was 77.0 ± 19.6** 10^3 · dyne · sec/cm^5 and the TPR index (diabetic rats [1]; 36 mg/kg i.g.) was 176.4 ± 44.6 dyne · sec/cm^3. For the same compound, the “Organ parameters: Heart” value (diabetic rats [1]; first of three A lines) was 3.42 g/g × 10^-3, the “Organ parameters: Heart ventricle” value (diabetic rats [1]; first of three A lines) was 2.99 g/g × 10^-3 and the “Organ parameters: Left kidney” value (diabetic rats [1]; first of three A lines) was 5.20 g/g × 10^-3. For the same compound, the “Organ parameters: Left ventricle” value (diabetic rats [1]; first of three A lines) was 2.29 g/g × 10^-3, the “Organ parameters: Right kidney” value (diabetic rats [1]; first of three A lines) was 5.33 g/g × 10^-3 and the “Organ parameters: Heart” value (diabetic rats [1]; second of three A lines) was 3.44 g/g × 10^-3. For the same compound, the “Organ parameters: Heart ventricle” value (diabetic rats [1]; second of three A lines) was 3.01 g/g × 10^-3, the “Organ parameters: Left kidney” value (diabetic rats [1]; second of three A lines) was 5.16 g/g × 10^-3 and the “Organ parameters: Left ventricle” value (diabetic rats [1]; second of three A lines) was 2.34 g/g × 10^-3. For the same compound, the “Organ parameters: Right kidney” value (diabetic rats [1]; second of three A lines) was 5.22 g/g × 10^-3, the “Organ parameters: Heart” value (diabetic rats [1]; third of three A lines) was 3.44 g/g × 10^-3 and the “Organ parameters: Heart ventricle” value (diabetic rats [1]; third of three A lines) was 3.03 g/g × 10^-3. The “Organ parameters: Left kidney” value (diabetic rats [1]; third of three A lines) was 5.07 g/g × 10^-3, the “Organ parameters: Left ventricle” value (diabetic rats [1]; third of three A lines) was 2.32 g/g × 10^-3 and the “Organ parameters: Right kidney” value (diabetic rats [1]; third of three A lines) was 5.19 g/g × 10^-3. For the same compound, the effect on angiosclerosis (diabetic rats [1]; long-term diabetic rats, 4 weeks of administration) was “improving angiosclerosis”, the HR (diabetic rats [2]; 9 mg/kg i.g.) was 361.80 ± 39.74 beat/min and the LVEDP (diabetic rats [2]; 9 mg/kg i.g.) was 5.73 ± 1.44 mmHg. It also gave an LVSP (diabetic rats [2]; 9 mg/kg i.g.) of 161.54 ± 13.98 mmHg, a Neg dp/dt (diabetic rats [2]; 9 mg/kg i.g.) of 7762.8 ± 320.2 mmHg/s and a Pos dp/dt (diabetic rats [2]; 9 mg/kg i.g.) of 12201.2 ± 1872.2 mmHg/s. It also gave an HR (diabetic rats [2]; 18 mg/kg i.g.) of 377.35 ± 17.54 beat/min, an LVEDP (diabetic rats [2]; 18 mg/kg i.g.) of 6.87 ± 1.26 mmHg and an LVSP (diabetic rats [2]; 18 mg/kg i.g.) of 170.65 ± 8.94 mmHg. The Neg dp/dt (diabetic rats [2]; 18 mg/kg i.g.) was 7660.8 ± 1154.8 mmHg/s, the Pos dp/dt (diabetic rats [2]; 18 mg/kg i.g.) was 11712.8 ± 1370.9 mmHg/s and the HR (diabetic rats [2]; 36 mg/kg i.g.) was 368.99 ± 31.66 beat/min. For the same compound, the LVEDP (diabetic rats [2]; 36 mg/kg i.g.) was 6.79 ± 2.47 mmHg, the LVSP (diabetic rats [2]; 36 mg/kg i.g.) was 168.25 ± 15.48 mmHg and the Neg dp/dt (diabetic rats [2]; 36 mg/kg i.g.) was 7675.4 ± 2216.6 mmHg/s. The Pos dp/dt (diabetic rats [2]; 36 mg/kg i.g.) was 11425.3 ± 1660.0 mmHg/s, the “effect on left ventricular functions” value (diabetic rats [2]; 4 weeks of administration) was “significant effect in improving left ventricular functions” and the E/A ratio ([3]; 10th week of administration (30th week of modeling), model control 2.5±0.31) was 1.32±0.31. The “Ea/Aa ratio vs model” value ([3]; 10th week of administration) was “increased significantly”, the “LVDd and LVDs vs model” value ([3]; 10th week of administration) was “slight decrease” and the PWd vs model ([3]; 10th week of administration) was “slight increase”. For the same compound, the E/A ratio ([3]; 16th week of administration (36th week of modeling), model control 2.5±0.52) was 1.45±0.18, the Heart rate ([4]; 9 mg/kg ig) was 418.3 ± 27.2 Beats/min and the LVEDP ([4]; 9 mg/kg ig) was 11.6 ± 2.9^d mmHg. The LVSP ([4]; 9 mg/kg ig) was 187.6 ± 22.3 mmHg, the Neg dp/pt ([4]; 9 mg/kg ig) was 10729 ± 2035^d mmHg/s and the Pos dp/pt ([4]; 9 mg/kg ig) was 10729 ± 2035^d mmHg/s. For the same compound, the Heart rate ([4]; 36 mg/kg ig) was 406.1 ± 32.9 Beats/min, the LVEDP ([4]; 36 mg/kg ig) was 13.0 ± 6.1^d mmHg and the LVSP ([4]; 36 mg/kg ig) was 189.2 ± 13.8 mmHg. The Neg dp/pt ([4]; 36 mg/kg ig) was 10033 ± 2044^d mmHg/s, the Pos dp/pt ([4]; 36 mg/kg ig) was 10033 ± 2044^d mmHg/s and the BNP ([4]; 9 mg/kg ig) was 50.8 ± 5.7 pg/mL. The BNP ([4]; 36 mg/kg ig) was 51.3 ± 8.1 pg/mL, the melting point was 182 °C and the tail collagen dissolubility ([5]; A 18 mg/kg) was 33.7±17.8%. The tail collagen dissolubility ([5]; A 36 mg/kg) was 37.5±11.1% and the “AGEs fluorescence content in aorta, left ventricular cardiac muscle and kidney” value (long-term diabetic rats) was “significantly decreasing”.
